The values that follow come from patent US10752616B2, “Bicycloheteroaryl-heteroaryl-benzoic acid compounds as retinoic acid receptor beta (RARβ) agonists” (King's College London, priority 2014, dated 2020).

SMILES strings stand for the structures. “Also recorded” adds a separate entry of the source.

Experiment [1] deals with T1, RARα (Homo sapiens (Human), UniProt P10276). Description: Binding affinity from Yoshimura et al., 2000, RARα. Conditions: ratio of relative IC50 (binding), Table 5.
Target sequence in this assay (P10276 whole entry, species assumed): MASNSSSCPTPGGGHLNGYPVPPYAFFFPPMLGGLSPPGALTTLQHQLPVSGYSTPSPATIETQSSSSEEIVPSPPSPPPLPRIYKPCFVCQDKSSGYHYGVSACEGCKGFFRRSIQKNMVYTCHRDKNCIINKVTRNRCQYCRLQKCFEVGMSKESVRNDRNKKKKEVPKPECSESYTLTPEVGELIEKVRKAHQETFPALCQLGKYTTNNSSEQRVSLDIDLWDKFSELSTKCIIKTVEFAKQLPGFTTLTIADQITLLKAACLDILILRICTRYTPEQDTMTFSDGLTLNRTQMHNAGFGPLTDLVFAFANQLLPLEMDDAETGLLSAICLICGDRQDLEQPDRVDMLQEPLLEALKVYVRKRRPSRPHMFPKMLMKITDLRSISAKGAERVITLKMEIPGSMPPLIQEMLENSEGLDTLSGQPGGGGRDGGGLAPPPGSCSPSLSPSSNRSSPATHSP
Experiment [2] addresses T1, RARα. Briefly: Subtype-specific transactivation from Yoshimura et al., 2000, RARα. In kind it is cell-based. Conditions: ratio of relative EC30 (transactivation), Table 6.
Target sequence in this assay (P10276 whole entry, species assumed): as above
Experiment [3] concerns the target T2, RARγ (Homo sapiens (Human), UniProt P13631). Briefly: Subtype-specific transactivation from Yoshimura et al., 2000, RARγ. In kind it is cell-based. Particulars: ratio of relative EC30 (transactivation), Table 6.
Target sequence in this assay (P13631 whole entry, species assumed): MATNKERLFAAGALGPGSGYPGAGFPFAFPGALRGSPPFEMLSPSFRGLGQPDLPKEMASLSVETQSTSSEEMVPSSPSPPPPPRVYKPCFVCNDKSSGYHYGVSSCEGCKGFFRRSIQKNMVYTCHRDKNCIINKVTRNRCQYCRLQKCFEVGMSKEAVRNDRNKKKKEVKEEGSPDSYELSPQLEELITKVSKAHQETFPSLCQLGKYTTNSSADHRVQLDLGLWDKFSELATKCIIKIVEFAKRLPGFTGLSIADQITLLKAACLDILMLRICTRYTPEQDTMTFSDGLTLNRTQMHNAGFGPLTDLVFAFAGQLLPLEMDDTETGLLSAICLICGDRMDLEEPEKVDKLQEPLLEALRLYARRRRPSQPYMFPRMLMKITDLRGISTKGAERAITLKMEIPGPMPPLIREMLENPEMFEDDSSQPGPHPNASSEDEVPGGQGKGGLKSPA
Experiment [4] concerns the target T1, RARα. Conditions: transactivation, relative to atRA = 1; cited from earlier work.
Target sequence in this assay (P10276 whole entry, species assumed): as the sequence (P10276 whole entry, species assumed) above
In experiment [5] the target is T3, RARβ (Homo sapiens (Human), UniProt P10826). Conditions: transactivation, relative to atRA = 1; cited from earlier work.
Target sequence in this assay (P10826 whole entry, species assumed): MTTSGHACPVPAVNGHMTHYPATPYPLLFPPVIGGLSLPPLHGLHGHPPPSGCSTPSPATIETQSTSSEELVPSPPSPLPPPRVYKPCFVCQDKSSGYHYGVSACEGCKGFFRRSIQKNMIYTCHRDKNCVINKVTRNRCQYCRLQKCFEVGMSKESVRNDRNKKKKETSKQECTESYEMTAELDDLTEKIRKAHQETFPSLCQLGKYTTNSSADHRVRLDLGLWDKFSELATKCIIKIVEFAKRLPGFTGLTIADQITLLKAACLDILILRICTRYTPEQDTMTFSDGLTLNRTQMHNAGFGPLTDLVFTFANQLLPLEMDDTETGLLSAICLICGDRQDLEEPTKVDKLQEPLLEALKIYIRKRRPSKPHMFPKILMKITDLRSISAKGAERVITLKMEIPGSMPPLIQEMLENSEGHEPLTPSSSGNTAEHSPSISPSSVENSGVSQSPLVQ
Experiment [6] addresses T2, RARγ. Particulars: transactivation, relative to atRA = 1; cited from earlier work.
Target sequence in this assay (P13631 whole entry, species assumed): as the sequence (P13631 whole entry, species assumed) above
The test system of experiment [7] is cerebellar neurons. Briefly: Neurite outgrowth assay, cerebellar neurons in the presence of myelin/MAG. Format: cell-based, rat. Conditions: cerebellar neurons, in the presence of MAG/myelin, with CD2019. The method, then: Cerebellar neurons isolated from post-natal day 3 rat pups were cultured over monolayers of parental 3T3 cells in control media, or media supplemented with a recombinant MAG-Fc chimera (R&D Systems) used at a final concentration of 20 μg/mL MAG-Fc. The monolayers were established for 24 hours prior to addition of the neurons and the co-cultures were maintained for approximately 21 hours. Following careful fixation with 4% paraformaldehyde, the neurons were immuno-stained with a GAP-43 antibody (from Graham Wilkin, Imperial College), dilution of 1:500, and the mean length of the longest neurite per cell was measured for approximately 120-150 neurons as previously described (see, e.g., Williams et al., 2005). DRG and cortical explants were obtained from adult rats, they were cultured in cellogen as previously described (see, e.g., Corcoran and Maden, 1999). Three explants per treatment were used. Neurite outgrowth was assessed 3 days later by immunohistochemistry with NF200 (Sigma, dilution of 1:200). The average lengths of the neurites were measured using image pro plus software. Media consisted of DMEM-F12 (Invitrogen) containing N2 (Invitrogen) supplemented with glucose (33 mM) and glutamine (2 mM).

In experiment [8] the target is T4, RARβ (Mus musculus (Mouse), UniProt P22605). Briefly: Transactivation assay for RARβ (gal4-RAR fusion, pFR-luc reporter, COS-7 cells), Table 2. In kind it is cell-based. Particulars: COS-7 reporter, mean of three or more determinations, species not stated (method: mouse or human). The method, then:
(§1) Transcriptional transactivation assays were performed with gal4 fusion receptor constructs, created using each of the RAR ligand binding domains of either mouse or human, co-transfected with the pFR-luc (Stratagene) reporter construct in COS-7 cells.
(§2) Briefly, on day 1, 96 well plates were seeded with 8000 cells per well then left to recover overnight. On day 2, the cells were co-transfected with 100 ng of reporter plasmid and 10 ng of the appropriate receptor plasmid per well using lipofectamine (Invitrogen). On day 3, the lipofectamine containing media was replaced by a DMEM without phenol red, followed by the addition of test compound dissolved in 1 μL of DMSO to each well's 100 μL total volume. Finally, on day 4, the cells were lysed and their luciferase substrate was provided by the BrightGlo™ reagent (Promega), the plates were then read on the MicroBeta TriLux™ (Perkin Elmer).
(§3) Data for test compounds are quoted as EC50 values. Where replicate data has been generated, the data are quoted as the mean EC50 from the separate experiments.
(§4) EC50's values are reported as mean values of three or more determinations.

For experiment [9], the target named is T5, RARα (Mus musculus (Mouse), UniProt P11416). Description: Transactivation assay for RARα (gal4-RAR fusion, pFR-luc reporter, COS-7 cells), Table 2. Format: cell-based. Conditions: for EC50: Table 2, COS-7 reporter, mean of three or more determinations, inactive = no agonist action at highest concentration tested. The method, then: as §1, §2, §3, §4
For experiment [10], the target named is T6, RARγ (Mus musculus (Mouse), UniProt P18911). Briefly: Transactivation assay for RARγ (gal4-RAR fusion, pFR-luc reporter, COS-7 cells), Table 2. In kind it is cell-based. Conditions: for EC50: Table 2, COS-7 reporter, mean of three or more determinations, inactive = no agonist action at highest concentration tested. The method, then: as §1, §2, §3, §4

Experiment [11] concerns the target T4, RARβ. Briefly: Transactivation assay, mouse RARβ. Conditions: Table 3, read-out: RARβ potency - EC50. Format: cell-based. The method, then: as §1, §2, §3
In experiment [12] the target is T5, RARα. Briefly: Transactivation assay, mouse RARα. Conditions: Table 3. Format: cell-based. The method, then:
as §1, §2, §3

Experiment [13] has as its target T6, RARγ. Description: Transactivation assay, mouse RARγ. In kind it is cell-based. Conditions: Table 3. The method, then:
as §1, §2, §3

The target in experiment [14] is T3, RARβ. Briefly: Transactivation assay, human RARβ. In kind it is cell-based. Conditions: Table 3; Human; read-out: RARβ potency - EC50. The method, then: as §1, §2, §3
Target sequence in this assay (P10826 183-417): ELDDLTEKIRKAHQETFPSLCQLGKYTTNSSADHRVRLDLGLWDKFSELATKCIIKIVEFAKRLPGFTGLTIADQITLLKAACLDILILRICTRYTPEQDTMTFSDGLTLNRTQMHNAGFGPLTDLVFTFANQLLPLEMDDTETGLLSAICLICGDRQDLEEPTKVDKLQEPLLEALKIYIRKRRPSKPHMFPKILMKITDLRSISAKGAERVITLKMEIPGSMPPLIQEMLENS
Experiment [15] deals with T1, RARα. Description: Transactivation assay, human RARα. In kind it is cell-based. Conditions: Table 3; Human. How it is done: as §1, §2, §3
Target sequence in this assay (P10276 183-417): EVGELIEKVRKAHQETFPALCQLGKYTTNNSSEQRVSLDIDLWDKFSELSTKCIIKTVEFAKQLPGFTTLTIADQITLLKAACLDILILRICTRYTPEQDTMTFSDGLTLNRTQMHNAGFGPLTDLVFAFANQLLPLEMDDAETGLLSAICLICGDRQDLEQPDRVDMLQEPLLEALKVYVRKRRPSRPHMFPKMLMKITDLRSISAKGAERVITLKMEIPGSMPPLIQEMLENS
The target in experiment [16] is T2, RARγ. Briefly: Transactivation assay, human RARγ. In kind it is cell-based. Conditions: Table 3; Human. The method, then: as §1, §2, §3
Target sequence in this assay (P13631 185-419): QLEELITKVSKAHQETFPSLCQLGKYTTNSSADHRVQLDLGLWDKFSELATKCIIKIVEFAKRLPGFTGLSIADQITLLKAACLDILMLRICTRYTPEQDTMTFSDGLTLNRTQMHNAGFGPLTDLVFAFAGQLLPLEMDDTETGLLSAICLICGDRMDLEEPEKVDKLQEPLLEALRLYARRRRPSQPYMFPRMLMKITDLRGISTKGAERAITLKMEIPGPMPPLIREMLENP
Experiment [17] has as its system rats with severed sensory roots. Briefly: Severed and re-implanted sensory roots (DRG, left forelimb) in rats; sticky tape tests. In kind it is in vivo. Conditions: rat, 1 mg/kg two days after lesion, then three times a week. How it is done:
In another example of nerve injury, the four sensory roots from each of four DRG at the level of the left forelimb were severed and re-implanted into the spinal cord.
FIGS. 2A and 2B show two graphs of the time taken for rats to sense sticky tape (FIG. 2A) and to remove sticky tape (FIG. 2B) that is placed on its injured forepaw, as a function of the number of weeks after injury. Rats were treated with 1 mg/kg of the test compound or vehicle two days after lesion, and then three times a week for the period of the experiment. Error bars show SEM. ***P<0.001, students t test, n=3-4 rats for each treatment group. At weeks 3, 4, and 5, there was significant difference between the rats treated with RARβ agonist as compared to rats treated with other retinoid agonists and vehicle.

The term EC50 denotes the midpoint of the concentration-response curve.

T5 sequence (P11416 183-417): as the sequence (P10276 183-417) above, with R165K counted along it
T4 sequence (P22605 210-444): as the sequence (P10826 183-417) above
T6 sequence (P18911 185-419): as the sequence (P13631 185-419) above

In the case of `O=C(O)c1ccc(-c2ccc(-c3cc4c(C(F)(F)F)ccc(F)c4o3)[nH]2)cc1` [1f], the RARα/RARβ ratio is 0.0038 in [1] and 0.034 in experiment [2]. Further, the RARγ/RARβ ratio in [3] amounted to 12.9. In addition, the “RARα relative EC30” value in [4] is 0.29 ± 0.04. Besides, the “RARβ relative EC30” value in experiment [5] is given as 8.5 ± 0.4. Further, in experiment [6], the “RARγ relative EC30” value is given as 110 ± 20.

Regarding `Cc1ccc(C)c2oc(-c3ccc(-c4ccc(C(=O)O)cc4)[nH]3)cc12` [1b], the RARα/RARβ ratio is listed as 0.0029 in experiment [1] and 0.148 in experiment [2]. Moreover, in experiment [3], the RARγ/RARβ ratio turned out to be 9.60. The “RARα relative EC30” value in [4] was 0.37 ± 0.02. The “RARβ relative EC30” value in experiment [5] is listed as 25 ± 12. Moreover, in experiment [6], the “RARγ relative EC30” value was 240 ± 30.

As to `O=c1cc(N2CCOCC2)oc2c(-c3ccccc3)cccc12` [LY295002], in [7], the “Effect on RARβ agonist (CD2019) mediated neurite outgrowth” value is on record as “neurite outgrowth was severely impeded”.

Regarding `Cc1ccc(C)c2oc(-c3nc(-c4ccc(C(=O)O)cc4Cl)no3)cc12` [BHBA-002, 3-Chloro-4-(5-(4,7-dimethylbenzofuran-2-yl)-1,2,4-oxadiazol-3-yl)benzoic acid], the EC50 came to 11.4 nM in experiment [8]; 136 nM in experiment [9]; 29 nM in experiment [10]; 11.5 nM in experiment [11]; 21.4 nM in experiment [14]. In [9] (fold-selectivity for RARβ over RARα, >1 = selective for RARβ), the RARα/RARβ ratio was 12. Further, the RARγ/RARβ ratio in experiment [10] (fold-selectivity for RARβ over RARγ, >1 = selective for RARβ) amounted to 2.5. The “Selectivity over RARα” value in [12] and in experiment [15] was 12-fold in each case. Also, the “Selectivity over RARγ” value in [13] is listed as 3-fold; in [16], 2-fold.

On to `O=C(O)c1ccc(-c2ccc(-c3cc4c(Cl)ccc(Cl)c4o3)[nH]2)cc1` [1c], for which the RARα/RARβ ratio stood at 0.0022 in experiment [1] and 0.006 in experiment [2]. Further, the RARγ/RARβ ratio in experiment [3] is given as 7.45. For the same compound, the “RARα relative EC30” value in [4] is on record as 0.70 ± 0.15. Besides, the “RARβ relative EC30” value in [5] was 110 ± 30. Further, the “RARγ relative EC30” value in [6] is 820 ± 290.

`Cc1ccc(C)c2oc(-c3nc(-c4ccc(C(=O)O)cc4)no3)cc12` [BHBA-001, 4-(5-(4,7-Dimethylbenzofuran-2-yl)-1,2,4-oxadiazol-3-yl)benzoic acid]: the concentration giving a half-maximal response (EC50) in experiment [8] is 1.94 nM; in experiment [9], 26 nM; in [10], 11 nM; in experiment [11] it was 1.94 nM; in experiment [14], 2.05 nM. Further, the figures for the “Selectivity over RARα” value in [12] and in experiment [15] were 14-fold and 23-fold, respectively. Further, the “Selectivity over RARγ” value in experiment [13] was 6-fold; in experiment [16] it was 5-fold. The “Behavioural tests after 5 weeks (severed sensory roots)” value in [17] is given as “performed as well as non-lesioned animals”.

For `CCCCCCOC(=O)[C@]1(O)C[C@@H]2O[C@@]1(C)n1c3ccccc3c3c4c(c5c6ccccc6n2c5c31)C(=O)NC4` [KT5720], the “Effect on RARβ agonist (CD2019) mediated neurite outgrowth” value in experiment [7] is recorded as “little or no effect; also recorded: does not affect”.
